What follows are compounds tested against T1, human FAAH (Homo sapiens, UniProt O00519) (assay: Human FAAH biochemical inhibition assay (AMC arachidonoyl amide fluorescence)). Conditions: Table 2, human FAAH (no asterisk); read-out: Activity (Ki).
T1 construct: host or cells: COS-7 cells, transient transfection; 13,000 g membrane fraction solubilised in 1% Triton X-100
T1 sequence (O00519 1-579): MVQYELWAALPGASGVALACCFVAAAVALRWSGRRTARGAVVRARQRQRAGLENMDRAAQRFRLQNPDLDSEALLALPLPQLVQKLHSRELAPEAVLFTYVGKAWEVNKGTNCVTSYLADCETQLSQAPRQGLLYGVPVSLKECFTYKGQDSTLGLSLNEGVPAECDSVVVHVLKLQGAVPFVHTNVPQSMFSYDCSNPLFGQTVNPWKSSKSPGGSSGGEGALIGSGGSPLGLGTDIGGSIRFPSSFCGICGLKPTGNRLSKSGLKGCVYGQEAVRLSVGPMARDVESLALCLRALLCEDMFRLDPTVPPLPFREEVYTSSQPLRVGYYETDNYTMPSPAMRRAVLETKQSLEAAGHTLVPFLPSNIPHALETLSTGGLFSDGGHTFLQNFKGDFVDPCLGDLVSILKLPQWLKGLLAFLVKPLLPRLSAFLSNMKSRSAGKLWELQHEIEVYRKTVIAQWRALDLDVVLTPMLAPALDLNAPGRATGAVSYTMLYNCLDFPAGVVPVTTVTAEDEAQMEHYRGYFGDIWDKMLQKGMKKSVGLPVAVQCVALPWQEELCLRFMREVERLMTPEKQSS
How it was run: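 Solubilized membrane fraction from COS-7 cells transfected with human FAAH, used at a final 0.05 mg/ml in 50 mM Hepes pH 7.5, 1 mM EDTA, 0.2% Triton X-100. Inhibitor pre-incubated 30 min at room temperature; 20 uM final AMC arachidonoyl amide added, reaction run 4 h at room temperature, fluorescence read.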

Ki, > 1000 nM:
CN(C)CCN(Cc1ccccc1)C(=O)C(Oc1ccc(B(O)O)cc1)c1ccccc1 (centres unmarked) [II-214], CN(C)CCNC(=O)C(Oc1ccc(B(O)O)cc1)c1ccccc1 (centres unmarked) [II-215], O=S(=O)(Cc1ccccc1)c1ccc(B(O)O)cc1 [II-222], OB(O)c1ccc(CBr)cc1 [II-241]

Ki, 10 to 100 nM:
COC(=O)C(Oc1ccc(B(O)O)cc1)c1ccccc1 (centres unmarked) [II-224], O=C(c1cccc(Oc2ccc(B(O)O)cc2)c1)N1CCCC1 [II-226], CN(C)C(=O)c1ccc(Oc2ccc(B(O)O)cc2)cc1 [II-227], CN(C)C(=O)c1cccc(Oc2ccc(B(O)O)cc2)c1 [II-228], CN(C(=O)c1ccc(B(O)O)cc1)c1ccccc1 [II-230], [O-][S+](Cc1ccccc1)c1ccc(B(O)O)cc1 (centres unmarked) [II-233], CC(Oc1ccc(B(O)O)cc1)c1ccccc1 (centres unmarked) [II-238], COc1c(C)cc(Oc2ccc(B(O)O)cc2)cc1C [II-239], COc1cc(Oc2ccc(B(O)O)cc2)cc(OC)c1OC [II-240], Cc1cc(COC(=O)c2ccc(B(O)O)cc2)ccc1F [II-247], O=C(Cc1ccccc1)Nc1ccc(B(O)O)cc1 [II-248], OB(O)c1ccc(Oc2cc(Cl)cc(Cl)c2)cc1 [II-258]

Ki, 10 to 1000 nM:
O=C(C(Oc1ccc(B(O)O)cc1)c1ccccc1)N1CCCCC1 (centres unmarked) [II-216], O=C(NCc1ccccc1)C(Oc1ccc(B(O)O)cc1)c1ccccc1 (centres unmarked) [II-217], CCCCNC(=O)C(Oc1ccc(B(O)O)cc1)c1ccccc1 (centres unmarked) [II-218], CN(C)C(=O)C(Oc1ccc(B(O)O)cc1)c1ccccc1 (centres unmarked) [II-219], O=C(c1ccc(B(O)O)cc1)N(Cc1ccccc1)Cc1ccccc1 [II-223], [O-][S+](Cc1ccc(B(O)O)cc1)c1ccccc1 (centres unmarked) [II-232], CN(C(=O)c1ccccc1)c1ccc(B(O)O)cc1 [II-235], O=C(Nc1ccc(B(O)O)cc1)c1ccccc1 [II-249]

Ki, < 10 nM:
OB(O)c1ccc(Oc2cccc(OC(F)(F)F)c2)cc1F [II-212], Cc1cc(Oc2ccc(B(O)O)c(F)c2)ccc1Cl [II-213], CCCCNC(=O)c1cccc(Oc2ccc(B(O)O)cc2)c1 [II-220], O=C(NCc1ccccc1)c1cccc(Oc2ccc(B(O)O)cc2)c1 [II-221], CC(C)NC(=O)c1cccc(Oc2ccc(B(O)O)cc2)c1 [II-225], CN(CCc1ccccc1)C(=O)c1ccc(B(O)O)cc1 [II-229], OB(O)c1ccc(CSc2ccccc2)cc1 [II-231], OB(O)c1ccc(SCc2ccccc2)cc1 [II-234], CC(C)OC(=O)c1cccc(Oc2ccc(B(O)O)cc2)c1 [II-236], OB(O)c1ccc(OC2CCCCC2)cc1 [II-237], OB(O)c1ccc(COc2ccccc2)cc1 [II-242], CCCCOc1cccc(Oc2ccc(B(O)O)cc2)c1 [II-243], OB(O)c1ccc(Oc2cccc(OC(F)(F)F)c2)cc1 [II-244], CC(C)Oc1cccc(Oc2ccc(B(O)O)cc2)c1 [II-245], CC(C)c1cccc(Oc2ccc(B(O)O)cc2)c1 [II-246], Cc1cc(OCc2ccc(B(O)O)cc2)ccc1Cl [II-250], CCOc1ccc(Oc2ccc(B(O)O)cc2)cc1F [II-251], COc1ccc(Oc2ccc(B(O)O)cc2)cc1Cl [II-252], Cc1cc(Oc2ccc(B(O)O)cc2)ccc1F [II-253], Cc1cc(Oc2ccc(B(O)O)cc2)ccc1Cl [II-254], COc1ccc(Oc2ccc(B(O)O)cc2)cc1F [II-255], OB(O)c1ccc(Oc2ccc(C(F)(F)F)c(Cl)c2)cc1 [II-256], OB(O)c1ccc(Oc2ccc(Cl)c(C(F)(F)F)c2)cc1 [II-257]

Reference: patent US8329675B2, “Inhibitors of fatty acid amide hydrolase” (Infinity Pharmaceuticals, Inc., priority 2006, dated 2012)
